Measured values taken from PubChem BioAssay AID330 (DTP/NCI, 2004).
Values joined by “and” are separate entries in the source; they are usually repeats but may differ in a detail not shown here. Identical values can stand only once. Inconclusive results and toxic doses are left out.

Tested on: P388 leukemia ip, CD2F1 mice, survival T/C
Assay: NCI In Vivo Anticancer Drug Screen. Data for tumor model P388 Leukemia (intraperitoneal) in CD2F1 (CDF1) mice
Conditions: endpoint: median survival time, higher = longer survival
How it was run: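 Mice carrying the transplanted tumor received test compound or vehicle. Survival was recorded in each group, and the value is the treated-group measurement divided by that of the vehicle-treated control group.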

[1] = dose: 25.0 mg/kg/injection, schedule: Q01DX009 (ip), vehicle: saline
[2] = dose: 50.0 mg/kg/injection, schedule: Q01DX009 (ip), vehicle: saline
[3] = dose: 50.0 mg/kg/injection, schedule: Q01DX005 (ip), vehicle: saline with Tween-80
[4] = dose: 100.0 mg/kg/injection, schedule: Q01DX005 (ip), vehicle: saline with Tween-80
[5] = dose: 200.0 mg/kg/injection, schedule: Q01DX005 (ip), vehicle: saline with Tween-80
[6] = dose: 50.0 mg/kg/injection, schedule: Q01DX005 (ip), vehicle: Klucel (hydroxypropylcellulose) (HPC)
[7] = dose: 100.0 mg/kg/injection, schedule: Q01DX005 (ip), vehicle: Klucel (hydroxypropylcellulose) (HPC)
[8] = dose: 200.0 mg/kg/injection, schedule: Q01DX005 (ip), vehicle: Klucel (hydroxypropylcellulose) (HPC)
[9] = dose: 25.0 mg/kg/injection, schedule: Q01DX005 (ip), vehicle: Klucel (hydroxypropylcellulose) (HPC)
[10] = dose: 50.0 mg/kg/injection, schedule: Q01DX009 (ip), vehicle: saline with Tween-80
[11] = dose: 100.0 mg/kg/injection, schedule: Q01DX009 (ip), vehicle: saline with Tween-80
[12] = dose: 200.0 mg/kg/injection, schedule: Q01DX009 (ip), vehicle: saline with Tween-80
[13] = dose: 60.0 mg/kg/injection, schedule: Q01DX005 (ip), vehicle: saline with Tween-80
[14] = dose: 120.0 mg/kg/injection, schedule: Q01DX005 (ip), vehicle: saline with Tween-80
[15] = dose: 240.0 mg/kg/injection, schedule: Q01DX005 (ip), vehicle: saline with Tween-80

SMILES: CC1(C)OOC(C)(O)C1Br (stereo unspecified)
- T/C (dose: 50.0 mg/kg/injection, schedule: Q04DX003 (ip), vehicle: saline): 95 % of control
- T/C (dose: 100.0 mg/kg/injection, schedule: Q04DX003 (ip), vehicle: saline): 103 % of control
- T/C (dose: 200.0 mg/kg/injection, schedule: Q04DX003 (ip), vehicle: saline): 95 % of control

SMILES: CC(C)C12CCC3(C)CCC1(C)CCC32O (stereo unspecified)
- T/C (dose: 12.0 mg/kg/injection, schedule: Q01DX009 (ip), vehicle: Klucel (hydroxypropylcellulose) (HPC)): 111 % of control
- T/C (dose: 24.0 mg/kg/injection, schedule: Q01DX009 (ip), vehicle: Klucel (hydroxypropylcellulose) (HPC)): 96 % of control
- T/C (dose: 48.0 mg/kg/injection, schedule: Q01DX009 (ip), vehicle: Klucel (hydroxypropylcellulose) (HPC)): 96 % of control
- T/C (dose: 96.0 mg/kg/injection, schedule: Q01DX009 (ip), vehicle: Klucel (hydroxypropylcellulose) (HPC)): 111 % of control

SMILES: CC1COS(=O)(=O)C1 (stereo unspecified)
- T/C [1]: 102 % of control
- T/C [2]: 101 % of control

SMILES: N#Cc1c(NC(=O)C(Cl)(Cl)Cl)sc2c1CCCC2
- T/C [3]: 105 % of control
- T/C [4]: 110 % of control
- T/C [5]: 117 % of control

SMILES: O=C(O)c1[nH]c(=O)[nH]c(=O)c1[N+](=O)[O-]
- T/C [6]: 93 % of control
- T/C [7]: 98 % of control
- T/C [8]: 98 % of control

SMILES: CCOC(=O)/N=C1/CCCC(=O)C1O (stereo unspecified)
- T/C [9]: 102 % of control
- T/C [6]: 103 % of control
- T/C [7]: 93 % of control
- T/C [8]: 101 % of control

SMILES: C=CC(=O)NC(C(=O)O)C(C)C (stereo unspecified)
- T/C (dose: 50.0 mg/kg/injection, schedule: Q01DX005 (ip), vehicle: saline): 97 % of control
- T/C (dose: 100.0 mg/kg/injection, schedule: Q01DX005 (ip), vehicle: saline): 97 % of control
- T/C (dose: 200.0 mg/kg/injection, schedule: Q01DX005 (ip), vehicle: saline): 100 % of control

SMILES: O=C(Nc1ccc(Cl)cc1)OCCSc1nc2ccccc2s1
- T/C [10]: 102 % of control
- T/C [11]: 105 % of control
- T/C [12]: 93 % of control

SMILES: COc1ccc2c(c1)C1(C)CCN(C)CC(C1)C2O (stereo unspecified)
- T/C [10]: 96 % of control and 104 % of control
- T/C [11]: 91 % of control and 87 % of control
- T/C [12]: 117 % of control

SMILES: CCOC(=O)c1ccc2c(c1)nc(-c1ccccn1)n2CCc1ccncc1
- T/C [9]: 103 % of control
- T/C [6]: 102 % of control
- T/C [7]: 102 % of control
- T/C [8]: 94 % of control

SMILES: FC(F)(F)c1cc(NC(=S)SCc2ccc3c(c2)OCO3)ccc1Cl
- T/C (dose: 50.0 mg/kg/injection, schedule: Q01DX009 (ip), vehicle: suspension in saline): 100 % of control
- T/C (dose: 100.0 mg/kg/injection, schedule: Q01DX009 (ip), vehicle: suspension in saline): 100 % of control
- T/C (dose: 200.0 mg/kg/injection, schedule: Q01DX009 (ip), vehicle: suspension in saline): 100 % of control

SMILES: CCC#CC(=O)O
- T/C [1]: 96 % of control
- T/C [2]: 95 % of control and 96 % of control

SMILES: Cc1ncc([N+](=O)[O-])n1CCO
- T/C (dose: 16.0 mg/kg/injection, schedule: Q01DX009 (ip), vehicle: saline with Tween-80): 112 % of control
- T/C (dose: 32.0 mg/kg/injection, schedule: Q01DX009 (ip), vehicle: saline with Tween-80): 108 % of control
- T/C [10]: 98 % of control
- T/C (dose: 64.0 mg/kg/injection, schedule: Q01DX009 (ip), vehicle: saline with Tween-80): 102 % of control and 108 % of control
- T/C [11]: 118 % of control
- T/C (dose: 128.0 mg/kg/injection, schedule: Q01DX009 (ip), vehicle: saline with Tween-80): 100 % of control and 109 % of control
- T/C [12]: 107 % of control
- T/C (dose: 250.0 mg/kg/injection, schedule: Q01DX001 (ip), vehicle: saline with Tween-80): 103 % of control
- T/C (dose: 256.0 mg/kg/injection, schedule: Q01DX009 (ip), vehicle: saline with Tween-80): 108 % of control
- T/C (dose: 360.0 mg/kg/injection, schedule: Q01DX001 (ip), vehicle: saline with Tween-80): 100 % of control and 103 % of control
- T/C (dose: 400.0 mg/kg/injection, schedule: Q01DX009 (ip), vehicle: saline with Tween-80): 111 % of control
- T/C (dose: 500.0 mg/kg/injection, schedule: Q01DX001 (ip), vehicle: saline with Tween-80): 103 % of control
- T/C (dose: 512.0 mg/kg/injection, schedule: Q01DX009 (ip), vehicle: saline with Tween-80): 100 % of control
- T/C (dose: 600.0 mg/kg/injection, schedule: Q01DX001 (ip), vehicle: saline with Tween-80): 100 % of control and 97 % of control
- T/C (dose: 1000.0 mg/kg/injection, schedule: Q01DX001 (ip), vehicle: saline with Tween-80): 102 % of control and 104 % of control and 101 % of control
- T/C (dose: 2000.0 mg/kg/injection, schedule: Q01DX001 (ip), vehicle: saline with Tween-80): 99 % of control

SMILES: COc1ccc(C(=O)CC2(O)C(=O)Nc3ccccc32)cc1O (stereo unspecified)
- T/C [13]: 105 % of control
- T/C [14]: 102 % of control
- T/C [15]: 102 % of control

SMILES: CCOc1ccc(C(/C(Cl)=N/O)C(Cl)(Cl)Cl)cc1 (stereo unspecified)
- T/C (dose: 12.5 mg/kg/injection, schedule: Q01DX005 (ip), vehicle: Klucel (hydroxypropylcellulose) (HPC)): 96 % of control
- T/C [9]: 91 % of control
- T/C [6]: 100 % of control

SMILES: COC1C(c2cc3ccccc3oc2=O)OC2OC(C)(C)OC21 (stereo unspecified)
- T/C (dose: 5.0 mg/kg/injection, schedule: Q01DX001 (ip), vehicle: Klucel (hydroxypropylcellulose) (HPC)): 97 % of control
- T/C (dose: 10.0 mg/kg/injection, schedule: Q01DX001 (ip), vehicle: Klucel (hydroxypropylcellulose) (HPC)): 101 % of control
- T/C (dose: 20.0 mg/kg/injection, schedule: Q01DX001 (ip), vehicle: Klucel (hydroxypropylcellulose) (HPC)): 100 % of control

SMILES: Clc1c(Br)c(-c2ccccc2)nc2ccccc12
- T/C [3]: 108 % of control
- T/C [4]: 110 % of control
- T/C [5]: 108 % of control

SMILES: CCn1c(C)nc([N+](=O)[O-])c1Sc1ncn[nH]1
- T/C [9]: 118 % of control
- T/C [6]: 115 % of control and 120 % of control
- T/C [7]: 121 % of control

SMILES: O=[Te]=O
- T/C (dose: 3.12 mg/kg/injection, schedule: Q01DX005 (ip), vehicle: saline): 103 % of control
- T/C (dose: 6.25 mg/kg/injection, schedule: Q01DX005 (ip), vehicle: saline): 110 % of control
- T/C (dose: 12.5 mg/kg/injection, schedule: Q01DX005 (ip), vehicle: saline): 105 % of control and 116 % of control

SMILES: Cc1c(O)cnc2nn(-c3ccccc3)c(=N)n12
- T/C [13]: 91 % of control
- T/C [14]: 92 % of control
- T/C [15]: 90 % of control

SMILES: CC(=O)N(C)c1ccc(N=Nc2ccc3ncccc3c2)cc1
- T/C (dose: 12.5 mg/kg/injection, schedule: Q01DX005 (ip), vehicle: saline with Tween-80): 102 % of control
- T/C (dose: 25.0 mg/kg/injection, schedule: Q01DX005 (ip), vehicle: saline with Tween-80): 100 % of control

SMILES: CC1(C)N=C(N)N=C(N)N1c1ccc(F)c(C(F)(F)F)c1
- T/C (dose: 1.0 mg/kg/injection, schedule: Q01DX009 (ip), vehicle: saline): 118 % of control
- T/C (dose: 4.0 mg/kg/injection, schedule: Q08DX002 (ip), vehicle: saline): 119 % of control
- T/C (dose: 8.0 mg/kg/injection, schedule: Q01DX009 (ip), vehicle: saline): 170 % of control
- T/C (dose: 8.0 mg/kg/injection, schedule: Q08DX002 (ip), vehicle: saline): 120 % of control
- T/C (dose: 16.0 mg/kg/injection, schedule: Q01DX009 (ip), vehicle: saline): 181 % of control
- T/C (dose: 32.0 mg/kg/injection, schedule: Q01DX001 (ip), vehicle: saline): 121 % of control
- T/C (dose: 32.0 mg/kg/injection, schedule: Q01DX009 (ip), vehicle: saline): 190 % of control
- T/C (dose: 64.0 mg/kg/injection, schedule: Q01DX001 (ip), vehicle: saline): 121 % of control
- T/C (dose: 64.0 mg/kg/injection, schedule: Q01DX009 (ip), vehicle: saline): 90 % of control
- T/C (dose: 128.0 mg/kg/injection, schedule: Q01DX001 (ip), vehicle: saline): 122 % of control

SMILES: Clc1ccc(NCNC2Nc3ccccc3N2)cc1Cl
- T/C [13]: 94 % of control
- T/C [14]: 93 % of control

SMILES: O=C(NC(=S)c1ccc(Cl)cc1)Nc1ccc(Cl)c(Cl)c1
- T/C (dose: 5.0 mg/kg/injection, schedule: Q01DX009 (ip), vehicle: saline with Tween-80): 87 % of control
- T/C (dose: 10.0 mg/kg/injection, schedule: Q01DX009 (ip), vehicle: saline with Tween-80): 96 % of control
- T/C (dose: 20.0 mg/kg/injection, schedule: Q01DX009 (ip), vehicle: saline with Tween-80): 100 % of control

SMILES: CC1(Cn2ccc(=O)[nH]c2=O)CC(C2(C)OCCO2)C(=O)O1 (stereo unspecified)
- T/C [13]: 102 % of control
- T/C [14]: 102 % of control
- T/C [15]: 101 % of control

SMILES: COC(=O)C1=NC(=N)N=C(C(=O)OC)C12C(=O)Cc1ccccc12 (stereo unspecified)
- T/C [13]: 103 % of control
- T/C [14]: 100 % of control
